The results in this text go back to ChEMBL document CHEMBL1152294, “Identification of KD5170: a novel mercaptoketone-based histone deacetylase inhibitor” (Bioorg Med Chem Lett, 2008).

Series [1] can be described thus: Aqueous solubility of the compound. The conditions noted are these: buffer. It is filed as physicochemical.
The target of another series is Cytochrome P450 2D6 (Homo sapiens, UniProt P10635). Description: Inhibition of CYP2D6. It is filed as ADME.
Series [2] has as its target Voltage-gated inwardly rectifying potassium channel KCNH2 (Homo sapiens, UniProt Q12809). Description: Inhibition of human ERG by patch-clamp assay. Background: In patch-clamp work, channel activity is measured electrically.
A further series addresses T1, Cytochrome P450 1A2 (Homo sapiens, UniProt P05177).
T1 sequence (P05177 whole entry): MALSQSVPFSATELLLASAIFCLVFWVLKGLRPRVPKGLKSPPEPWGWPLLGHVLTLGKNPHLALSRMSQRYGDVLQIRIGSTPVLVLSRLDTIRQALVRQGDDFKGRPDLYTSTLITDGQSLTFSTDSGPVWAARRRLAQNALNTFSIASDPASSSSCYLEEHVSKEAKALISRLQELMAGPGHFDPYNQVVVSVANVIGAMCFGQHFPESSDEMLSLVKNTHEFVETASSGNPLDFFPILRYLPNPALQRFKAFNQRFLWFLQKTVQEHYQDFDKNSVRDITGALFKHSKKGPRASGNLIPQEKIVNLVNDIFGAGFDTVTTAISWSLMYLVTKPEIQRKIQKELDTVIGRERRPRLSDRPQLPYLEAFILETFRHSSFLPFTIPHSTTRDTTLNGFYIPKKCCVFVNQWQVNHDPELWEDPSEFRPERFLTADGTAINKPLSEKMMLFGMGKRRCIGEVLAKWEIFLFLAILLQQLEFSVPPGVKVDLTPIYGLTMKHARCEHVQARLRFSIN
Put plainly: Inhibition of CYP1A2. It is filed as ADME.

The next series deals with Cytochrome P450 2C19 (Homo sapiens, UniProt P33261). Description: Inhibition of CYP2C19. It is filed as ADME.
Sequence of Cytochrome P450 2C19 (P33261 whole entry): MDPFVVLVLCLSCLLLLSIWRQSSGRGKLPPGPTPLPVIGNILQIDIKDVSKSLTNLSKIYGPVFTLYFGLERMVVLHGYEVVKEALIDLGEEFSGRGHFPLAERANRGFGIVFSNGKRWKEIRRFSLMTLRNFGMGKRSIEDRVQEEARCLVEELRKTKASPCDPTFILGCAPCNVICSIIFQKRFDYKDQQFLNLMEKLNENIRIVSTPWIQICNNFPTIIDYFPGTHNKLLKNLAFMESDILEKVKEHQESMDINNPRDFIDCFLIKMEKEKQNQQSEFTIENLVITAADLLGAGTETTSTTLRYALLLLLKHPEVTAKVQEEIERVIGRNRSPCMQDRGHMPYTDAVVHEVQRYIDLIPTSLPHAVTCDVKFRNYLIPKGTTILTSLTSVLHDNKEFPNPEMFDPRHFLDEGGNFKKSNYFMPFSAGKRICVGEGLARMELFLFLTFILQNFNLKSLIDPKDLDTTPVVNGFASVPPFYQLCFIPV
The target of another series is Cytochrome P450 2C9 (Homo sapiens, UniProt P11712). Description: Inhibition of CYP2C9. It is filed as ADME.
Sequence of Cytochrome P450 2C9 (P11712 whole entry): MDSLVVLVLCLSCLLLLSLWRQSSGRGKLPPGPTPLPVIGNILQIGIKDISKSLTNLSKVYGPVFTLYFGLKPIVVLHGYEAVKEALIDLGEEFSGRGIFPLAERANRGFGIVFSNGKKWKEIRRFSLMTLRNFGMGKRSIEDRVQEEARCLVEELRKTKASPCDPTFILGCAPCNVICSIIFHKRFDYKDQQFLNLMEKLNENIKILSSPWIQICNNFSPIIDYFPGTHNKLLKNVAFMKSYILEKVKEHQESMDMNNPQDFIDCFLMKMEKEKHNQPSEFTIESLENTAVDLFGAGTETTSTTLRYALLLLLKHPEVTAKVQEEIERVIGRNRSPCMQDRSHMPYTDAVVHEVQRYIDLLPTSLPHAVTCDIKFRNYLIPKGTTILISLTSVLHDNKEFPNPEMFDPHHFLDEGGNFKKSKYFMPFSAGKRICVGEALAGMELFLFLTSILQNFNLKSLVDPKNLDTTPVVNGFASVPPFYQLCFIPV
The test system of series [3] is HCT-116. Put plainly: Cytotoxicity against human HCT116 cells. It is filed as functional, cell-based.
In a further series the target is Histone deacetylase. Description: Inhibition of HDAC in human HeLa cells assessed as histone H3 hyperacetylation. It is filed as cell-based.
The nature of series [4]: (§1) Cytotoxicity against human […] cells. It is filed as functional, cell-based.
The test system of series [5] is Mus musculus. Put plainly: Induction of histone H3 hyperacetylation in human HCT116 cells xenografted in nude mouse at 42 mg/kg, po by immunoblotting relative to control. It is filed as functional, HCT-116.
The subject of series [6] is Mus musculus. Put plainly: Induction of histone H3 hyperacetylation in human HCT116 cells xenografted in nude mouse at 42 mg/kg, iv by immunoblotting relative to control. It is filed as functional, HCT-116.
The subject of another series is HL-60. Put plainly: Cytotoxicity against human HL60 cells. It is filed as functional, cell-based.
The next series has as its system NCI-H460. Put plainly: Cytotoxicity against human H460 cells. It is filed as functional, cell-based.
For a further series, the system named is PC-3. Description: Cytotoxicity against human PC3 cells. It is filed as functional, cell-based.
The next series relates to SK-OV-3. Put plainly: Cytotoxicity against human SKOV3 cells. It is filed as functional, cell-based.
In series [7] the test system is HCT-116. Description: Antitumor activity against human HCT116 cells xenografted in nude mouse assessed as tumor growth inhibition at 42 mg/kg, po QOD for 14 days relative to control. It is filed as functional. More on the design: scale not given: the % may be the effect or the level left. Background: Xenograft models place foreign cells or tissue in a host animal.

Another series deals with HT-29. Description: Cytotoxicity against human HT-29 cells. It is filed as functional, cell-based.
Series [8] can be described thus: Cytotoxicity against human MJ cells. It is filed as functional, cell-based.
Series [9] deals with HCT-116. Description: Antitumor activity against human HCT116 cells xenografted in nude mouse assessed as tumor growth inhibition at 84 mg/kg, po QOD for 14 days relative to control. It is filed as functional. More on the design: scale not given: the % may be the effect or the level left.
The next series deals with MDA-MB-435. Description: Cytotoxicity against human MDA-MB-435 cells. It is filed as functional, cell-based.
The next series deals with 786-0. Put plainly: Cytotoxicity against human 786-0 cells. It is filed as functional, cell-based.
Series [10] has as its system Mus musculus. Description: Induction of histone H3 hyperacetylation in human HCT116 cells xenografted in nude mouse at 30 mg/kg, po after 4 hrs by immunoblotting relative to control. It is filed as functional, organism-based. Also on record: dose 30 mg/kg. The settings on record: HCT-116.
The test system of series [11] is Mus musculus. Put plainly: Induction of histone H3 hyperacetylation in human HCT116 cells xenografted in nude mouse at 30 mg/kg, po after 8 hrs by immunoblotting relative to control. It is filed as functional, organism-based. Also on record: dose 30 mg/kg. The conditions noted are these: HCT-116.
The test system of series [12] is Mus musculus. Description: Induction of histone H3 hyperacetylation in human HCT116 cells xenografted in nude mouse at 50 mg/kg, po by immunoblotting relative to control. It is filed as functional, HCT-116.
In another series the target is Cytochrome P450 3A4 (Homo sapiens, UniProt P08684). Put plainly: Inhibition of CYP3A4. It is filed as ADME.
Sequence of Cytochrome P450 3A4 (P08684 whole entry): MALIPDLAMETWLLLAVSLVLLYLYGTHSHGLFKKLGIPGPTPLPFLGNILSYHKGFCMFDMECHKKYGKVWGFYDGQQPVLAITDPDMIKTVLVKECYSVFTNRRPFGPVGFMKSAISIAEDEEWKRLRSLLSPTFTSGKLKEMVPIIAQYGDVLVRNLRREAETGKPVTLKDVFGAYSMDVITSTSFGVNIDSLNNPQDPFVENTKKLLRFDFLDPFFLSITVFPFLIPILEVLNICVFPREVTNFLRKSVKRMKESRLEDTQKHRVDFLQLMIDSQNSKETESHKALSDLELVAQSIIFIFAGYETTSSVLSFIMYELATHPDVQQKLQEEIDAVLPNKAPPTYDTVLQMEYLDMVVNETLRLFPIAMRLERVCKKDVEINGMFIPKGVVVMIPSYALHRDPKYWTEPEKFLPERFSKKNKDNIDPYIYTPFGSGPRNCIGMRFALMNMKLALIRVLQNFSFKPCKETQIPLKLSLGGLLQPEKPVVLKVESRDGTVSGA
Another series relates to U226. Described as §1. It is filed as functional, cell-based.

Values after ≈ are worked out from the molar mass of the structure shown. Active and inactive are the calls of the source. The calls are words filed in the database; no cut-off is given here.

Sequence of Cytochrome P450 2D6 (P10635 whole entry): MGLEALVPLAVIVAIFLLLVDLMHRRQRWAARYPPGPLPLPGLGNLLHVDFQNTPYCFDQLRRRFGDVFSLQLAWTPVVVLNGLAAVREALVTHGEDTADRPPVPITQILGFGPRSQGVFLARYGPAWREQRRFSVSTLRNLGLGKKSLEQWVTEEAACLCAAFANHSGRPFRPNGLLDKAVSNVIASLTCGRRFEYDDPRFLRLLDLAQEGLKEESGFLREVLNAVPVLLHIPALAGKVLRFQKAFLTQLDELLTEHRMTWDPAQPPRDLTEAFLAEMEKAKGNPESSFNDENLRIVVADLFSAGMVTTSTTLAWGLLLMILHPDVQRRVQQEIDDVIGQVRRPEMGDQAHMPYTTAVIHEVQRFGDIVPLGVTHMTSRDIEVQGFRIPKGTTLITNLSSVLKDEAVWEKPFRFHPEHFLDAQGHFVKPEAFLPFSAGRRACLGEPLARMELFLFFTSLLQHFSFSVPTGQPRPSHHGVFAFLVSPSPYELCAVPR
Sequence of Voltage-gated inwardly rectifying potassium channel KCNH2 (Q12809 whole entry): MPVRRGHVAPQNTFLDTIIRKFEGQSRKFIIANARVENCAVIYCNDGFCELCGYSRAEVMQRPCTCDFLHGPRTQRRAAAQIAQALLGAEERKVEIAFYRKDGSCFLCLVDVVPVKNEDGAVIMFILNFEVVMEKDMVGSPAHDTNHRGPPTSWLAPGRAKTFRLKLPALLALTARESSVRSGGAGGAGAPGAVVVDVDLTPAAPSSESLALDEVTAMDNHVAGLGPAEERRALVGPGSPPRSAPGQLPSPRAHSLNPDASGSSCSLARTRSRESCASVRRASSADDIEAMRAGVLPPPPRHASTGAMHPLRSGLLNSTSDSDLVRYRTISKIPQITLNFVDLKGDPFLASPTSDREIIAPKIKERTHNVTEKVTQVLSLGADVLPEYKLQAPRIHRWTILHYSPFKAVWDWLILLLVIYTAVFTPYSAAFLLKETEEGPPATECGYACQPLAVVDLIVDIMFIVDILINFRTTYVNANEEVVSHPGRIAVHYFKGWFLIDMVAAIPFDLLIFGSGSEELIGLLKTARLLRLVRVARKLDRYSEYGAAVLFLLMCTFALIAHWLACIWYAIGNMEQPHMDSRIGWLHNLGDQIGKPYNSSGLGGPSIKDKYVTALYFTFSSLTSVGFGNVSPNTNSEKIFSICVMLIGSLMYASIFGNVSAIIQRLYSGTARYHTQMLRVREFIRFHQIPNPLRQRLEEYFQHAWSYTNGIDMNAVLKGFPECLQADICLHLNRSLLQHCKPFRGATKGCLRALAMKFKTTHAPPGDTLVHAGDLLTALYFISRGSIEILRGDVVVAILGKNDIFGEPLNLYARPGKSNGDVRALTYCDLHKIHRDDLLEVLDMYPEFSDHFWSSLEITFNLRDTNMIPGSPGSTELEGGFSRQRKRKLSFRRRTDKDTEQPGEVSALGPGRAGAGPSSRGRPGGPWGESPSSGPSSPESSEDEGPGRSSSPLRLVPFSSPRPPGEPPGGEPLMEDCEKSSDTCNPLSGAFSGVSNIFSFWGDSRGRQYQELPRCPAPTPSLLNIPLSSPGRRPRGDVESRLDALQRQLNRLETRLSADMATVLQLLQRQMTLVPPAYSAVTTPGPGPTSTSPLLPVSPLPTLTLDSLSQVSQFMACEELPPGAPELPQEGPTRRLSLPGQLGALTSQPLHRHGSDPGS

The term solubility denotes the concentration that dissolves in the medium under given conditions. One may read the EC50 as the concentration needed to bring the measured effect to its halfway point. On to `Br.CC(=O)SCC(=O)c1ccc(NS(=O)(=O)c2ccc(OCCCN(C)C)cc2)nc1`, for which the solubility in [1] was 10000 µg/mL. Also, the EC50 on Cytochrome P450 2D6 was over 50000 nM; in series [2], over 30000 nM; at Cytochrome P450 1A2, over 50000 nM; at Cytochrome P450 2C19, over 50000 nM; at Cytochrome P450 2C9, over 50000 nM.

Regarding `CC(=O)SCC(=O)c1ccc(NS(=O)(=O)c2ccc(OCCCN3CCCCC3)cc2)nc1`, the results for the EC50 (with HCT-116 [3]; at Histone deacetylase; in [4]) were 1000 nM, 53 nM and 800 nM, respectively.

For `CC(=O)SCC(=O)c1ccc(NS(=O)(=O)c2ccc(OC3CCCN(C)C3)cc2)nc1` (stereo not given), the EC50 came to 3700 nM with HCT-116 [3], 110 nM at Histone deacetylase and 1200 nM in series [4].

On to `CC(=O)SCC(=O)c1ccc(NS(=O)(=O)c2ccc(OCc3ccccn3)cc2)nc1`, for which the EC50 was found to be 420 nM with HCT-116 [3] and 220 nM on Histone deacetylase.

`CC(=O)SCC(=O)c1ccc(NS(=O)(=O)c2ccc(OCCCO)cc2)nc1`: the EC50 with HCT-116 [3] worked out at 8600 nM; at Histone deacetylase it was 110 nM.

On to `CC(=O)SCC(=O)c1ccc(NS(=O)(=O)c2ccc(OCCCN(C)C)cc2)nc1` [listing 1 of 2 here], for which the EC50 with HCT-116 [3] came out at 140 nM; in the series on HL-60, 390 nM; in the series on NCI-H460, 230 nM; in the series with PC-3, 740 nM; with SK-OV-3, 760 nM; at Histone deacetylase, 45 nM. The EC50 amounted to 1000 nM in the series with HT-29; 180 nM in series [4]; 170 nM in series [8]; 180 nM in the series on MDA-MB-435; 590 nM in the series on 786-0. In addition, the “fold change (FC)” value was found to be 9 in the series with Mus musculus [5] and 12 in the series with Mus musculus [6]. Also, the Activity in the series with HCT-116 [7] came to 44%; with HCT-116 [9], 25%.

Consider `CC(=O)SCC(=O)c1ccc(NS(=O)(=O)c2ccc(OCCCN(C)C)cc2)nc1` [listing 2 of 2 here], for which the result in the series with Mus musculus [10] and with Mus musculus [11] was Active.

`COc1ccc(S(=O)(=O)Nc2ccc(C(=O)CSC(C)=O)cn2)cc1`: the EC50 with HCT-116 [3] was determined as 540 nM; at Histone deacetylase, 29 nM.

As for `CC(=O)SCC(=O)c1ccc(NS(=O)(=O)c2ccc(OC3CCN(C)CC3)cc2)nc1`, the results for the EC50 (in the series on HCT-116 [3]; on Histone deacetylase; in series [4]) were 180 nM, 44 nM and 300 nM, respectively.

For the compound `CC(=O)SCC(=O)c1ccc(NS(=O)(=O)c2ccc(OCCCCN(C)C)cc2)nc1`, the EC50 is 280 nM in the series on HCT-116 [3], 29 nM at Histone deacetylase and 120 nM in [4].

On to `CC(=O)SCC(=O)c1ccc(NS(=O)(=O)c2ccc(OCCCN3CCCC3)cc2)nc1`, for which the values for the EC50 (in the series on HCT-116 [3]; at Histone deacetylase; in series [4]) were 820 nM, 61 nM and 400 nM, respectively.

Take `CC(=O)SCC(=O)c1ccc(NS(=O)(=O)c2ccc3c(c2)COOC3)nc1`: the concentration in solution in [1] (solubility) was 200 µg/mL (≈ 490 µM). The EC50 with HCT-116 [3] is 1200 nM; on Cytochrome P450 2D6, over 50000 nM; in [2], over 30000 nM; on Cytochrome P450 1A2 it was over 50000 nM; at Cytochrome P450 2C19, over 50000 nM; on Histone deacetylase, 38 nM. The EC50 at Cytochrome P450 2C9 was 10000 nM; at Cytochrome P450 3A4, over 50000 nM; in [4], 2000 nM. For the same compound, the “fold change (FC)” value with Mus musculus [12] amounted to 5.

For `CC(=O)SCC(=O)c1ccc(NS(=O)(=O)c2ccc(OCCN(C)C)cc2)nc1`, the EC50 was determined as 660 nM in the series on HCT-116 [3] and 93 nM on Histone deacetylase. For the same compound, the result with U226 was inactive.

Consider `CC(=O)SCC(=O)c1ccc(NS(=O)(=O)c2ccc(OCCCN3CCOCC3)cc2)nc1`, for which the EC50 in the series on HCT-116 [3] came to 330 nM; at Histone deacetylase, 67 nM; in series [4], 19000 nM.

Take `CC(=O)SCC(=O)c1ccc(NS(=O)(=O)c2ccc(OCCc3ccccn3)cc2)nc1`: the values for the EC50 (in the series on HCT-116 [3]; on Histone deacetylase; in series [4]) were 750 nM, 190 nM and 9600 nM, respectively.

`COc1cccc(S(=O)(=O)Nc2ccc(C(=O)CSC(C)=O)cn2)c1`: the EC50 in the series with HCT-116 [3] came to 4300 nM; at Histone deacetylase it was 190 nM.

With `COCCCOc1ccc(S(=O)(=O)Nc2ccc(C(=O)CSC(C)=O)cn2)cc1`, the EC50 came to 5300 nM with HCT-116 [3], 120 nM on Histone deacetylase and 29000 nM in [4].

In the case of `CC(=O)SCC(=O)c1ccc(NS(=O)(=O)c2ccc(OCCCc3ccccn3)cc2)nc1`, the EC50 at Histone deacetylase turned out to be 220 nM.
